Assay [1] deals with mitophagy in C. elegans muscles. The assay is described as follows: Mitophagy imaging with Mito-Rosella sensor. Format: in vivo. The settings on record: 1 mM; L4 Rosella worms; 21° C. An excerpt:
FIGS. 8A-8F. (FIG. 8A) is a schematic illustration of the Mito-Rosella sensor function. The Mito-Rosella sensor contains an N-terminal mitochondrial targeting signal, a pH-stable red fluorescent protein and a C-terminal pH-sensitive green fluorescent protein. In non-acidic environment the green to red fluorescent ratio is 0.6-0.8. However, in the autolysosome, where the pH is low, the green fluorescent is quenched and the green to red ratio is decreased to 0.2-0.5. By measuring the mitochondria red and green fluorescence, it was possible to monitor mitophagy in live worms. […] A bar graph presenting the results of mitophagy imaging experiments. L4 larval worms were treated with either 8 mM paraquat or 1 mM 1,8-Diaminooctane for 16 h, at 21° C. Control worms were treatment with similar volume of distilled water and incubated under similar conditions. Asterisks indicate significance for comparisons with control worms. […]
The Mito-Rosella sensor is composed of an N-terminal mitochondrial targeting sequence followed by a pH-insensitive red fluorescent protein (DsRed.T3) and a pH-sensitive green fluorescent protein (pHluorin) (FIG. 8A). In intact mitochondria the green to red fluorescence ratio is high (between 0.6-0.8). However, upon acidification in autolysosome (where mitochondria are degraded) the green fluorescence is quenched and thus the ration is decreased to 0.2-0.5.

Another assay relates to C. elegans. The assay can be described thus: Lifespan assay. Format: in vivo. The settings on record: 4 mM from L1; 21° C.; control 12 days; p=0.0063. The protocol:
FIG. 10. […] Survival curves comparing the lifespans of worm growing on plates containing 0.25 mM and 4 mM 1,8-Diaminooctane (or vehicle as a control). The curves represent data from at least three independent experiments in which the lifespans of at least 145 worms were measured (for each condition). The lifespan medians and p values are indicated in the parentheses near the treatment legend. All lifespan assays were conducted at 21° C. and started with synchronized L1 larvae. Statistical analysis on lifespan survival curves was performed using the log-rank (Mantel-Cox).
Lifespan assays were performed as described in R. Abergel, L. Livshits, M. Shaked, A. K. Chatterjee, E. Gross, Synergism between soluble guanylate cyclase signaling and neuropeptides extends lifespan in the nematode Caenorhabditis elegans, Aging cell 16 (2) (2017) 401-413. In brief, 12 worms per plate were used. […] Worm's survival was scored every two days for live, dead (when it no longer responded to touch), and missing worms. The worms were transferred into fresh plates every 2 days to avoid progeny contamination and every 4 days when worms are in post-fertile stage, until the end of the experiment. Worms were scored as censored when they display internal progeny hatching (worm bagging), rupture, burrow in the agar or crawl off the plates, however, include them in the lifespan data analysis as censored. […]

For `NCCCCCCCCN` [1,8-Diaminooctane], the “mitophagy response (Mito-Rosella green to red fluorescence ratio)” value in assay [1] is on record as “strong mitophagy response”. For the same molecule, in the assay on C. elegans, the median lifespan is 15 days.

The values are drawn from patent US20210253511A1, “COMPOUNDS AND USES FOR THE TREATMENT AND PREVENTION OF DISEASES AND CONDITIONS ASSOCIATE WITH OR AGGREVATED BY IMPARED MITOPHAGY” (Yissum Research Development Company of The Hebrew …, priority 2018, published 2021).
